Results reported in patent US9045415B2, “Targeting of EWS-FLI1 as anti-tumor therapy” (Georgetown University, priority 2006, dated 2015).
Where two headings read alike, the source gives them in different places. Blank lines part the entries; values can stand above or below the compound they belong to. No end group written: not given here. *: point of attachment. FITC = O=C1OC2(c3ccc(O)cc3Oc3cc(O)ccc32)c2ccc(NC(=S)*)cc21

Legend:
recombinant EWS-FLI1 = biological target: T1, recombinant EWS-FLI1 (Homo sapiens, UniProt Q01543+Q01844); experiment: Surface plasmon resonance (Biacore) binding to EWS-FLI1; settings: read-out: KD
T1 sequence (Q01543 1-452): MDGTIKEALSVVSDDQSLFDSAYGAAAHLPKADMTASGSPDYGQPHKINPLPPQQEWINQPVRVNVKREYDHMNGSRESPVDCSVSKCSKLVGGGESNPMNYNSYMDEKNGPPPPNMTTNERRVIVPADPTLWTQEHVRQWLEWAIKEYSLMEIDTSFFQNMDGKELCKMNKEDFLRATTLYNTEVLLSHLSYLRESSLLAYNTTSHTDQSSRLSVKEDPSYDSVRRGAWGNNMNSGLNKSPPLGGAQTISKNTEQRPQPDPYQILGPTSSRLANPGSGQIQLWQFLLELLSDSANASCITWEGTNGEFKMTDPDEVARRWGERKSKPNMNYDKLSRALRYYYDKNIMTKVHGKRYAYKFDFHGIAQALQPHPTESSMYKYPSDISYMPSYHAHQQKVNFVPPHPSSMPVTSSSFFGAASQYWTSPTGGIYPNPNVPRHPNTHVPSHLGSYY
T1 sequence (Q01844 1-656): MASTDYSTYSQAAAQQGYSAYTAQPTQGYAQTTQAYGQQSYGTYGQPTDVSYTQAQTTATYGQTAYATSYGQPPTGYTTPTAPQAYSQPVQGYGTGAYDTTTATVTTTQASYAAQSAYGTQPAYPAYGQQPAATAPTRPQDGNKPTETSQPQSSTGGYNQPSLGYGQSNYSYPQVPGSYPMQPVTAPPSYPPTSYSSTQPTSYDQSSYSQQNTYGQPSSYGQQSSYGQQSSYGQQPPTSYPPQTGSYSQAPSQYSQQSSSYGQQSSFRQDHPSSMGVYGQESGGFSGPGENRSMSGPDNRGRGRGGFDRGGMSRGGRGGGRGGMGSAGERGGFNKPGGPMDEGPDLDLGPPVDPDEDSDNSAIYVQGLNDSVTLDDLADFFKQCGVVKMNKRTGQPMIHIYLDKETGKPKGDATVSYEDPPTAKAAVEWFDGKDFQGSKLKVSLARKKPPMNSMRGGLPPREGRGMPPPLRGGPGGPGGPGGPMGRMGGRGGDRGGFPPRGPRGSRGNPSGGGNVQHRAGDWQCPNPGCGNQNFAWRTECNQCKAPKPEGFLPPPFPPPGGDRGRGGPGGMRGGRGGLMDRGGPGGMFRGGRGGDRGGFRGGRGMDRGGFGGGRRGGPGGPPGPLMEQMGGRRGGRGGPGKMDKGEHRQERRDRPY
Description: Antp is conjugated to the amino terminal of all peptides used in these studies. Recombinant EWS-FLI1 (MW 55 kDa) was covalently linked to a CM5 chip at a density of 1200 RU, and E9RP (MW 4 kDa) was evaluated for binding. The E9RP analyte concentrations ranged from 0.03-30 μM, and all are shown in duplicate. E9RP bound to EWS-FLI1 with a KD of 4.0 μM.
An assay that will identify whether a peptide can disrupt RHA from interacting with EWS-FLI1 was developed. The Biacore device is a biosensor that utilizes surface plasmon resonance (SPR) to measure the strength of molecular interactions. SPR is the sensitive measurement of […] light based upon alterations of surface characteristics that change with molecules binding to a surface. The Biacore device combines SPR with a microfluidic system.
The KD of E9RP binding to EWS-FLI1 was calculated to be 4.0 μM (FIG. 4).
A surface plasmon resonance assay using the Biacore T100 was established with EWS-FLI1, prepared in our laboratory as previously published (Uren, A., Tcherkasskaya, O. & Toretsky, J. A. Recombinant EWS-FLI1 oncoprotein activates transcription. Biochemistry 43, 13579-13589 (2004)). DNA oligonucleotides were used to quality control the proper conformation of EWS-FLI1 on the surface of a CM5 chip. Small molecules obtained from the Developmental Therapeutics Program of the National Cancer Institute, NIH (http://dtp.nci.nih.gov/branches/dscb/repo_open.html) were prioritized based upon their molecular weight and solubility. An initial screening of molecules was performed at 1 or 10 μM compound, based on solubility. We used a model that compares the actual binding maximum (actual RU) with the theoretical binding maximum (RUtheor). […] Hits (RUactual to RUtheor of 0.7-2.0) were then reviewed by a team of medicinal chemists and those with structural potentials were selected for further study. Selected molecules were tested in vitro in a solution coimmunoprecipitation assay using recombinant EWS-FLI1 and GST-RHA (647-1075).

ESFT cells TC71 = experiment: Xenografts of TC71 cells transfected with E9R expression plasmids; format: in vivo, mice; settings: mutated control peptide vs wild-type
Description: ESFT cells TC71 were transfected with pGE9R (wild-type sequence peptide (SEQ ID NO: 29)) or pGE9R-D5A (control, mutated peptide; D5A (SEQ ID NO: 31)). In FIG. 10A, fluorescent micrographs of transfected cells after 4 days in culture are presented. […] Bar equals 300 microns. In FIG. 10B, each group contains six mice. Mice legs were measured every 2-3 days. Tumors appeared in 2 weeks. The experiment was terminated after 26 days when the largest tumor caused the mouse to limp. Tumor volumes were calculated according to (D×d2/6)×π formula, where large diameter of tumor mass is D and small diameter is d. 2-way ANOVA analysis, followed by Bonferroni correction for multiple variables, the difference in the two growth curves was highly significant, p=0.016.
The ability of the E9R peptide sequence to prevent ESFT tumorigenesis in a pilot murine xenograft experiment was determined. As a control peptide, the same mutation that prevented wild-type RHA from binding to EWS-FLI1 (D827A, noted in the 10-mer peptide as E9R-D5A) was created. ESFT cells were transfected with either pGE9R or pGE9R-D5A by electroporation. A transfection efficiency of greater than 80% using fluorescent microscopy (FIG. 10A) was observed. […] Every two to three days, each animal's thigh was measured in three dimensions, and tumor volumes were calculated. […]

TC32 cells = experiment: Monolayer cell growth (MTT or WST), TC32; format: cell-based; settings: TC32 monolayer, 10 μM
Description: (§1) In FIG. 13A, recombinant EWS-FLI1 was treated with NSC635437 for 30 minutes. GST-RHA (630-1020) was added and the complexes were then precipitated with antibody to EWS-FLI1 and Protein G beads. Resolved complexes showing the immunoprecipitated complex control without compound are in lanes 3 (0.1% DMSO) and 5 (0.01% DMSO). […] ESFT TC32 (◯) and neuroblastoma SK-N-AS (▪) were grown for 72 hours in the continuous presence of NSC635437. Cells were incubated in MTT reagent for 4 hours and the dried precipitate was dissolved isopropanol and the absorbance read at 570 nm. Each cell line was standardized to the growth of the DMSO control.
(§2) FIG. 30 provides data to show E9R peptide prevents EWS-FLI1 binding to RHA with specific detrimental effects upon ESFT growth and transformation. […] Scale bar equals 20 μm. […] Only expression of EGFP-E9R in TC71 reduced anchorage independent growth. […] Scale bar equals 20 μm.
FIG. 33 provides data showing YK-4-279 is potent and specific inhibitor of ESFT. […] Cell number was measured by MTT or WST reduction after seven days in culture. […] FIG. 33D cell lines expressing EWS-FLI1 compared to non-EWS-FLI1 malignant cell lines following 3 days in culture to establish the IC50 using WST assay. […] Graph plots level of fluorescence in treated divided by untreated lysate. […] Scale bar equals 200 μm.

[1] = tested on: neuroblastoma SKNAS cells; experiment: Monolayer cell growth, neuroblastoma; format: cell-based; settings: SKNAS monolayer
From the text: FIGS. 8A-E show E9RP inhibits ESFT cell growth. In FIGS. 8A and 8B, E9RP is the peptide region of RHA (SEQ ID NO:29) fused to the Penetratin peptide (from the Antennapedia homeodomain; SEQ ID NO:34) and contains amino-terminal fluorescein (FITC). […] Neither lipids nor electricity were used for transduction of peptides into cells. Confocal microscopy identified peptide throughout cells with nuclear uptake. Nuclear uptake was confirmed by DAPI staining. […] Cell lines were placed in 96-well plates with either vehicle alone (●), or E9RP (10 μM) on days 0, 3 and 5 (▴). No lipid or other transfection method was utilized. This represents two experiments with similar results. FIG. 8D depicts dose response of ESFT 1 to either wild-type or single amino-acid mutant peptides. (▪) wild-type E9RP, (E9R (SEQ ID NO:29) fused to the Penetratin peptide (SEQ ID NO:34)), (▾)(E9RP (P2A peptide (SEQ ID NO:30) fused to the Penetratin peptide (SEQ ID NO:34)), (▴)E9RP (D5A peptide (SEQ ID NO:31) fused to the Penetratin peptide (SEQ ID NO:34)). Growth normalized to treating cells with the 16 aa Antp sequence alone (SEQ ID NO:34). FIG. 8E is a comparison of wild-type versus mutant peptides in ESFT and NB cells.
as §1, §2

- melting point: 154 to 156 °C
- Kd (recombinant EWS-FLI1; FIG. 24 experiment): 10.2 µM
Compound: O=C(CC1(O)C(=O)N(Cc2ccccc2)c2c(Cl)ccc(Cl)c21)c1ccc(Cl)cc1 (centres unmarked) [YK-4-276, 1-Benzyl-4,7-dichloro-3-[2-(4-chlorophenyl-2-oxoethyl)]-3-hydroxyl-1,3-dihydroindol-2-one]

- melting point: 189 to 192 °C
Compound: Cc1ccc(C(=O)CC2(O)C(=O)Nc3c(Cl)ccc(Cl)c32)cc1 (centres unmarked) [YK-4-280, 4,7-Dichloro-3-hydroxyl-3-(2-oxo-2-p-tolylethyl)-1,3-dihydroindol-2-one]

- melting point: 240 to 243 °C
Compound: Nc1ccc(C(=O)CC2(O)C(=O)Nc3c(Cl)ccc(Cl)c32)cc1 (centres unmarked) [YK-4-284, 3-[2-(4-Aminophenyl-2-oxoethyl)]-4,7-dichloro-3-hydroxyl 1,3-dihydroindol-2-one]

- melting point: 198 to 200 °C
Compound: O=C(CC1(O)C(=O)Nc2c(Cl)ccc(Cl)c21)c1ccccc1 (centres unmarked) [YK-4-285, 4,7-Dichloro-3-hydroxyl-3-(2-oxo2-phenylethyl)-1,3-dihydroindol-2-one]

- melting point: 240 to 242 °C
- Kd (recombinant EWS-FLI1; FIG. 23 experiment): 6.82 µM
- Kd (recombinant EWS-FLI1; FIG. 24 experiment): 9.3 µM
Compound: O=C(CC1(O)C(=O)Nc2c(Cl)ccc(Cl)c21)c1ccc(O)cc1 (centres unmarked) [YK-4-289, 4,7-Dichloro-3-hydroxyl-3-[2-(4-hydroxyphenyl-2-oxoethyl)]-1,3-dihydroindol-2-one]

Compound: PPPLAAVIEA [E9R-D5A, control, mutated peptide D5A, expressed from pGE9R-D5A, reference compound]
- tumor take-rate and rate of growth (ESFT cells TC71): greater

Compound: [FITC]-RQIKIWFQNRRMKWKKPPPLAAVIEA ({FITC}-RQIKIWFQNRRMKWKKPPPLAAVIEA) [E9R(D5A), Antennapedia-E9R-D5A, mutated control peptide, reference compound]
- ESFT cell growth with fluorescein conjugated peptides (TC32 cells): neither the D5A mutated control nor antennapedia peptides alone reduced ESFT cell growth
- growth of neuroblastoma cells with fluorescein conjugated peptides [1]: slight increase
